Bridge positions count the residues as written; N and C are the ends. Side chains are listed from the residue outwards. Peptide text beside a SMILES is read from it. * marks the point of attachment. Butanoyl(4-(4-I-phenyl)) = O=C(CCCc1ccc(I)cc1)*; PEG2 = NCCOCCOCCC(=O)O
Tests used:
HTR3A = biological target: T1, HTR3A (Homo sapiens, UniProt P46098); assay: Safetyscan47 Ion Channel, Opener; type: cell-based; conditions: for Emax: read-out: Max Response
T1 sequence (P46098 24-478): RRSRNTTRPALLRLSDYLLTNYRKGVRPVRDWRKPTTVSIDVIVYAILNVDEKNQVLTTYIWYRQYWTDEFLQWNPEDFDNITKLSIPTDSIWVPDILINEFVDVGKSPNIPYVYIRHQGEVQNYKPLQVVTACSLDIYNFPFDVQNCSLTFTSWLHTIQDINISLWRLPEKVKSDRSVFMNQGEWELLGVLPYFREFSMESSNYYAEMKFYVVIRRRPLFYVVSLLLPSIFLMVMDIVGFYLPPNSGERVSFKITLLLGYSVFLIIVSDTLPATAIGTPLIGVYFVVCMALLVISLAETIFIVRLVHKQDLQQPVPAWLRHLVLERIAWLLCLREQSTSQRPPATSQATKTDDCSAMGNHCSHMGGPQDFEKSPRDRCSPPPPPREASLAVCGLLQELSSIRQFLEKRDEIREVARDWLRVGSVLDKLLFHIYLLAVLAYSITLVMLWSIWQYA

OPRD1 = OPRD1 (Homo sapiens, UniProt P41143); assay: Safetyscan47 GPCR cAMP, Antagonist; type: cell-based; conditions: for Emax: read-out: Max Response
CCKAR = biological target: T2, CCKAR (Homo sapiens, UniProt P32238); assay: Safetyscan47 GPCR Calcium Flux, Agonist; type: cell-based; conditions: for Emax: read-out: Max Response
T2 sequence (P32238 1-428): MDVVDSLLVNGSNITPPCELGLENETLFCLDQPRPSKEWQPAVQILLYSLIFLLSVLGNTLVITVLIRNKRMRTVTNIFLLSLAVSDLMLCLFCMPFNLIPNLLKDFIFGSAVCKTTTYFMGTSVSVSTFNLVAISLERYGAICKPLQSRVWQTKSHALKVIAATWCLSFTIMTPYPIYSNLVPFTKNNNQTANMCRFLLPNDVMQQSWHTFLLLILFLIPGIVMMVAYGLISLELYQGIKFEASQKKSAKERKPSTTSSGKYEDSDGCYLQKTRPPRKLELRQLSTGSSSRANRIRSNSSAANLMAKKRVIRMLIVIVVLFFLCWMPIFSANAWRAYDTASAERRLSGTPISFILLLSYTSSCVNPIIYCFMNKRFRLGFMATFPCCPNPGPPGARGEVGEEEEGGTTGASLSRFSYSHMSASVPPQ

AVPR1A = AVPR1A (Homo sapiens, UniProt P37288); assay: Safetyscan47 GPCR Calcium Flux, Agonist; type: cell-based; conditions: for Emax: read-out: Max Response
CHRM3 = CHRM3 (Homo sapiens, UniProt P20309); assay: Safetyscan47 GPCR Calcium Flux, Antagonist; type: cell-based; conditions: for Emax: read-out: Max Response
integrin αvβ3 = integrin αvβ3 (Homo sapiens, UniProt P05106+P06756); assay: ELISA competition assay, integrin αvβ3; type: binding
integrin αIIbβ3 = biological target: T3, integrin αIIbβ3 (Homo sapiens, UniProt P05106+P08514); assay: ELISA competition assay, integrin αIIbβ3; type: binding
T3 sequence (P08514 32-993 limits assumed): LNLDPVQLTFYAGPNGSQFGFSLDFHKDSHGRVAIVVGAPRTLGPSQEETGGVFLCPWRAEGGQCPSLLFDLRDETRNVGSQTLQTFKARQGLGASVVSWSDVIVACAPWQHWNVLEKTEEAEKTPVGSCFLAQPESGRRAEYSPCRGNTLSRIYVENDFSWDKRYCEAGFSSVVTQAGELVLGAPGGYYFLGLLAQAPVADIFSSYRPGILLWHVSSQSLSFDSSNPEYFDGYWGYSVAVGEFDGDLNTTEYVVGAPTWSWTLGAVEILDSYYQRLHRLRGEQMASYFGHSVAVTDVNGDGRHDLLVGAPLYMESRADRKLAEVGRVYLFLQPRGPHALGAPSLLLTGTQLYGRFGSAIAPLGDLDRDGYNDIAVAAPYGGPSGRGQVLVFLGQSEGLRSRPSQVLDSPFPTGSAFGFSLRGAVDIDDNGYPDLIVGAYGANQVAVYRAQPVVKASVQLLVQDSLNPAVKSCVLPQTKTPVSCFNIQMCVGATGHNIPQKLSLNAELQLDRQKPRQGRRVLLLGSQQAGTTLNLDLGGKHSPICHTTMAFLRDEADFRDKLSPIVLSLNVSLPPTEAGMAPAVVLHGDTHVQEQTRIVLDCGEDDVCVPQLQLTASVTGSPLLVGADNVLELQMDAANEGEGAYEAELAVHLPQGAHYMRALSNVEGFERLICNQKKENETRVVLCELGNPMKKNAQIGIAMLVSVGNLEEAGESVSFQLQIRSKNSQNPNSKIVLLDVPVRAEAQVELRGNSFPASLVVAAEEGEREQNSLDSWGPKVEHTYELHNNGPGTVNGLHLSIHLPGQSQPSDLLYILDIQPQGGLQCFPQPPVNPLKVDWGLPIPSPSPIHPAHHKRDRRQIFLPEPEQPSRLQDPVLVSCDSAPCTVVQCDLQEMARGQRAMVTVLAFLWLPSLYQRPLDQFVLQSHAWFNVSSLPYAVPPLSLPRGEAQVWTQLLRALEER
T3 sequence (P05106 27-718 limits assumed): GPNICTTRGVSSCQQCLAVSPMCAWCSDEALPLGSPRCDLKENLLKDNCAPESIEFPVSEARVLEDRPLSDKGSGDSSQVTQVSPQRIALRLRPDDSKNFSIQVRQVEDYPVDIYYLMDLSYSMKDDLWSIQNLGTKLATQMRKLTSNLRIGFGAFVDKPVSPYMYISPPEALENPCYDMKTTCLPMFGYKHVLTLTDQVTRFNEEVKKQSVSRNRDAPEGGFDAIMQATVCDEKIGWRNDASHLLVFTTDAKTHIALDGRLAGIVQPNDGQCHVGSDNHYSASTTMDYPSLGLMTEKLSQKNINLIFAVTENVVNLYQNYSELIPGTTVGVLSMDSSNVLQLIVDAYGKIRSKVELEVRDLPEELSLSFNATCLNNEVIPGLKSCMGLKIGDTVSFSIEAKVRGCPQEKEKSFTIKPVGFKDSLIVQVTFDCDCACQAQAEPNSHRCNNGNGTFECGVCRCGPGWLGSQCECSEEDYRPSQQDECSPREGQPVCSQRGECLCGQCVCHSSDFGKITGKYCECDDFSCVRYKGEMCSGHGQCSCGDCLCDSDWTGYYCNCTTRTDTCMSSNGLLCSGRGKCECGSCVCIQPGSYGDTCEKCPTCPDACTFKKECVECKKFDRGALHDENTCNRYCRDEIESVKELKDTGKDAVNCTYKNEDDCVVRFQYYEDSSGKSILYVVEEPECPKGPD

SMILES	EC50 (HTR3A)	Emax (HTR3A)	IC50 (OPRD1; RC50, Antagonist, Result Type IC50)	Emax (OPRD1)	EC50 (CCKAR)	Emax (CCKAR)	EC50 (AVPR1A)	Emax (AVPR1A)	IC50 (CHRM3)	Emax (CHRM3)	IC50 (integrin αvβ3)	IC50 (integrin αIIbβ3)	IC50 (OPRD1; RC50 (IC50), GPCR cAMP, Antagonist, OPRD1)
CC[C@H](C)[C@H](NC(=O)[C@H](CC(C)C)NC(=O)[C@H](CC(=O)O)NC(=O)CNC(=O)[C@H](CCCNC(=N)N)NC(=O)[C@@H](NC(=O)[C@H](Cc1ccccc1)NC(=O)[C@H](Cc1ccc(O)cc1)NC(=O)[C@@H]1CCC(=O)NCC(=O)NCC(=O)N[C@@H](CCCNC(=N)N)C(=O)NCC(=O)N[C@@H](Cc2c[nH]cn2)C(=O)N[C@@H](C(C)C)C(=O)N2CCC[C@H]2C(=O)N1)C(C)C)C(=O)N[C@@H](CO)C(=O)N[C@@H](Cc1ccccc1)C(=O)N[C@@H](Cc1ccc(O)cc1)C(=O)N[C@@H](CCCCN)C(=O)O [lassotide 36] (GGRGHVPEYFVRGDLISFYK-OH; lactam N-8)	> 45 µM	0%	> 45 µM	0%	> 45 µM	4.58%	> 45 µM	1.03%	> 45 µM	3.06%	0.343 µM	0.332 µM	–
CC[C@H](C)[C@H](NC(=O)[C@H](CC(C)C)NC(=O)[C@H](CC(=O)O)NC(=O)CNC(=O)[C@H](CCCNC(=N)N)NC(=O)[C@@H](NC(=O)[C@H](Cc1ccccc1)NC(=O)[C@H](Cc1ccc(O)cc1)NC(=O)[C@@H]1CCC(=O)NCC(=O)NCC(=O)N[C@@H](CCCNC(=N)N)C(=O)NCC(=O)N[C@@H](Cc2c[nH]cn2)C(=O)N[C@@H](C(C)C)C(=O)N2CCC[C@H]2C(=O)N1)C(C)C)C(=O)N[C@@H](CO)C(=O)N[C@@H](Cc1ccccc1)C(=O)N[C@@H](Cc1ccc(O)cc1)C(=O)N[C@@H](CCCCNC(=O)CCOCCOCCNC(=O)CCCc1ccc(I)cc1)C(=O)O [lassotide 47] (GGRGHVPEYFVRGDLISFYK([PEG2-Butanoyl(4-(4-I-phenyl))])-OH; lactam N-8)	> 45 µM	0.79%	–	56.4%	> 45 µM	0%	> 45 µM	8.02%	> 45 µM	0.91%	1 µM	1.49 µM	40.3 µM

Source: doi:10.1101/2025.01.28.635346v1 (bioRxiv, 2025)
